Experimental findings from US20240343704A1, “HALO-SUBSTITUTED AMINO PYRIDINE COMPOUNDS AS INHIBITORS OF THE HAEMATOPOIETIC PROGENITOR KINASE 1 (HPK1)” (priority 2021, published 2024) are described below.

The target in this experiment is T1, Recombinant (1-346) HPK1 (h) (Homo sapiens, UniProt Q92918).
T1 construct: Recombinant (1-346) HPK1 (h) is incubated with 8 mM MOPS pH 7.0
T1 sequence (Q92918 1-346): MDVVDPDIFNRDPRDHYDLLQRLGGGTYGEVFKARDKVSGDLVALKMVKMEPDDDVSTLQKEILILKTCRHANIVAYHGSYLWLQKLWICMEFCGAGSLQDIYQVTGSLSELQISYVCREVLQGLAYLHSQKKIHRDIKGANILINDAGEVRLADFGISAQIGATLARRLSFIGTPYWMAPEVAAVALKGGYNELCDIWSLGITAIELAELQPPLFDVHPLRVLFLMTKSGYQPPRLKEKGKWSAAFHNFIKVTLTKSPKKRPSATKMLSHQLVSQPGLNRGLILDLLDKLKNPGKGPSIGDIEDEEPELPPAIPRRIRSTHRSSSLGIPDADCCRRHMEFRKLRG
Briefly: HPK1 Human STE Kinase Enzymatic Radiometric Assay. In kind it is biochemical. The following applies: read-out: HPK1 IC50 nM Range*. As for the experimental part:
A stock solution of 10 mM of test compound is prepared in DMSO. The compound plate was prepared by 3-fold and 9-point serial dilutions. […] The reaction is initiated by The addition of the Mg/ATP mix. After incubation for 40 minutes at RT, the reaction is stopped by the addition of phosphoric acid to a concentration of 0.5%.
As to `CN1CCC[C@H]1c1cc(-c2cc(-c3ccc4c(c3)CCNC4=O)c(N)nc2F)ccc1C1CCOCC1` [I-642, (S)-6-(2-amino-6-fluoro-5-(3-(1-methylpyrrolidin-2-yl)-4-(tetrahydro-2H-pyran-4-yl)phenyl)pyridin-3-yl)-3,4-dihydroisoquinolin-1(2H)-one], the IC50 lay in the range of 11 to 100 nM.

As for `CC(=O)N1CCC(Oc2ccc(-c3cc(-c4cc5c(cc4F)C(=O)NCC5)c(N)nc3F)cc2C#N)CC1` [I-291, 2-((1-acetylpiperidin-4-yl)oxy)-5-(6-amino-2-fluoro-5-(7-fluoro-1-oxo-1,2,3,4-tetrahydroisoquinolin-6-yl)pyridin-3-yl)benzonitrile], the IC50 was 0.1 to 10 nM.

For `Nc1nc(F)c(-c2ccc(N3CCN(CCCC(F)F)CC3)cc2)cc1-c1ccc2c(=O)[nH]cc(F)c2c1` [I-544, 6-(2-amino-5-(4-(4-(4,4-difluorobutyl)piperazin-1-yl)phenyl)-6-fluoropyridin-3-yl)-4-fluoroisoquinolin-1(2H)-one], the IC50 is 0.1 to 10 nM.

As to `CO[C@H]1CCN(Cc2cc(-c3cc(-c4cc5c(cc4F)C(=O)NCC5)c(N)nc3F)ccc2N2CCOCC2)C1` [I-566, (S)-6-(2-amino-6-fluoro-5-(3-((3-methoxypyrrolidin-1-yl)methyl)-4-morpholinophenyl)pyridin-3-yl)-7-fluoro-3,4-dihydroisoquinolin-1(2H)-one], the IC50 lay within 0.1 to 10 nM.

Turning to `COc1cc2c(cc1-c1cc(-c3ccc4c(c3)CCNC4=O)c(N)nc1F)CN(C)CC2` [I-438, 6-(2-amino-6-fluoro-5-(6-methoxy-2-methyl-1,2,3,4-tetrahydroisoquinolin-7-yl)pyridin-3-yl)-3,4-dihydroisoquinolin-1(2H)-one], the IC50 lay in the range of 11 to 100 nM.

`COc1ccc(-c2cc(-c3ccc4c(c3)CCNC4=O)c(N)nc2F)cc1C#N` [I-632, 5-(6-amino-2-fluoro-5-(1-oxo-1,2,3,4-tetrahydroisoquinolin-6-yl)pyridin-3-yl)-2-methoxybenzonitrile]: the half-inhibitory concentration (IC50) lay in the range of 11 to 100 nM.

`COC1CCN(Cc2cc(-c3cc(-c4cc5c(cc4F)C(=O)NCC5)c(N)nc3F)ccc2OCCCC(F)F)CC1` [I-527, 6-(2-amino-5-(4-(4,4-difluorobutoxy)-3-((4-methoxypiperidin-1-yl)methyl)phenyl)-6-fluoropyridin-3-yl)-7-fluoro-3,4-dihydroisoquinolin-1(2H)-one]: the IC50 lay within 11 to 100 nM.

In the case of `CN(C)Cc1cc(-c2cc(-c3cc4c(cc3F)C(=O)NCC4)c(N)nc2F)ccc1N1CCS(=O)(=O)CC1` [I-498, 6-(2-amino-5-(3-((dimethylamino)methyl)-4-(1,1-dioxidothiomorpholino)phenyl)-6-fluoropyridin-3-yl)-7-fluoro-3,4-dihydroisoquinolin-1(2H)-one], the IC50 is 11 to 100 nM.

Turning to `COCCN1CCc2c(C)cc(-c3cc(-c4ccc5c(c4)CCNC5=O)c(N)nc3F)cc2C1` [I-448, 6-(2-amino-6-fluoro-5-(2-(2-methoxyethyl)-5-methyl-1,2,3,4-tetrahydroisoquinolin-7-yl)pyridin-3-yl)-3,4-dihydroisoquinolin-1(2H)-one], the concentration for half-maximal inhibition (IC50) lay in the range of 0.1 to 10 nM.

In the case of `CC(C)N1CCN(c2ccc(-c3cc(-c4ccc5c(=O)[nH]c(Cl)nc5c4)c(N)nc3F)cc2)CC1` [I-418, 7-(2-amino-6-fluoro-5-(4-(4-isopropylpiperazin-1-yl)phenyl)pyridin-3-yl)-2-chloroquinazolin-4(3H)-one], the IC50 is 101 to 1000 nM.

As for `CN(C)Cc1cc(-c2cc(-c3ccc4c(c3)CCNC4=O)c(N)nc2F)ccc1F` [I-617, 6-(2-amino-5-(3-((dimethylamino)methyl)-4-fluorophenyl)-6-fluoropyridin-3-yl)-3,4-dihydroisoquinolin-1(2H)-one], the IC50 lay in the range of 11 to 100 nM.

With `CC(C)N1CCN(c2ccc(-c3cc(-c4ccc5c(c4)S(=O)(=O)CNC5=O)c(N)nc3F)cc2)CC1` [I-424, 7-(2-amino-6-fluoro-5-(4-(4-isopropylpiperazin-1-yl)phenyl)pyridin-3-yl)-2,3-dihydro-4H-benzo[e][1,3]thiazin-4-one 1,1-dioxide], the IC50 lay in the range of 11 to 100 nM.

Broadly, the IC50 is the concentration that gives 50% inhibition.
